How the values were obtained:
[1] = tested on: corneodesmosomes in stratum corneum tape strips; assay: Treatment of tape strips from psoriatic skin with proteases, corneodesmosome density by electron microscopy; design: species or system human; details: 22-50 nM recombinant SCCE or SCTE, 1-6 h at 37° C
Experimental: Tape strips are obtained according to a method described by Guerrin et al, 1998.
Small pieces of tape strips from control patients along with patients suffering from the skin conditions eczema, psoriasis, dermatitis and psoriasis are fixed for 2 h at 4° C. in Karnovsky fixative (2% paraformaldehyde, 2.5% gluteraldehyde in 0.1M phosphate buffer, pH 7.4). The samples are then washed three times in 0.1M phosphate buffer (pH7.4) containing 10% sucrose for 30 minutes each at 4° C.
Secondary fixation is carried out in aqueous 2% osmium tetroxide solution for 1 hour at room temperature. Dehydration is through a graded series of ethanol at room temperature (75% ethanol for 15 minutes; 95% ethanol for 15 minutes; 2 washes of 100% ethanol for 15 minutes; 100% ethanol dried over anhydrous copper sulphate for 15 minutes).
For resin embedding, samples are first placed in the intermediate solvent, propylene oxide, for two changes of 15 minutes duration. This is followed by infiltration in a 50:50 mixture of propylene oxide:araldite resin overnight at room temperature. […]
Ultrathin sections (70-90 nm) are cut on an ultramicrotome. […] Electron micrographs are recorded on Agfa Scientific 23D56 EM film.
Corneodesmosome density (area occupied by corneodesmosomes divided by total area of micrograph) is measured on electron micrographs of tape strips of each condition. […]

[2] = target: T1, Envoplakin (Homo sapiens, UniProt Q92817); assay: Cleavage of adhesion proteins from human epidermis by recombinant SCCE/SCTE (immunoblot); assay type: biochemical; details: human epidermis protein extract incubated with active recombinant enzyme at 37 C
T1 construct: The native form of Envoplakin has a molecular weight of between 124-209 kDa; from tissue; host or cells: human epidermis (TENP-40 buffer extract)
Experimental: (§1) Recombinant ProSCCE is produced and purified as described above. Recombinant ProSCCE is activated with agarose-bound trypsin, as described in Brasttsand & Egelrud, 1999.
(§2) Proteins are extracted from human epidermis in the presence of a detergent (TENP-40 buffer extract) and incubated with active SCCE for 37 C. for 4 h. The reactions are stopped by boiling for 2 mins after Laemmli's sample buffer is added. The proteins are immunoblotted with antibodies against corneodesmosomal proteins.

[3] = target: T2, Corneodesmosin (Homo sapiens, UniProt Q15517); assay: as above; assay type: biochemical; details: human epidermis protein extract incubated with active recombinant enzyme at 37 C
T2 construct: The native form of corneodesmosin has a molecular weight of between 50 and 56 kDa; from tissue; host or cells: human epidermis (TENP-40 buffer extract)
T2 sequence (Q15517 33-529): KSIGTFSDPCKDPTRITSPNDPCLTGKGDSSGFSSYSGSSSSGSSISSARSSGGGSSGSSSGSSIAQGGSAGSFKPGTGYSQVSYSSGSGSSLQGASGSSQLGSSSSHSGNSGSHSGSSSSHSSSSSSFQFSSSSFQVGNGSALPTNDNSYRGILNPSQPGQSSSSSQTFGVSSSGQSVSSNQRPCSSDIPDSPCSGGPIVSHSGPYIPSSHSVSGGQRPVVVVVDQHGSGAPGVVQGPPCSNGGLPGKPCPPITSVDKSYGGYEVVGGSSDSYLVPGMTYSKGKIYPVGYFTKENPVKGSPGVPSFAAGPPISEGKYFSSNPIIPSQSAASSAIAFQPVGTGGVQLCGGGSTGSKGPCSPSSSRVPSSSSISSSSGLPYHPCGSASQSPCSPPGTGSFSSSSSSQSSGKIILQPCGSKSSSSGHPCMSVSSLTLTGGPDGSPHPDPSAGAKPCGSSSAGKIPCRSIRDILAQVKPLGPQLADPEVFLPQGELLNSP
Experimental: as §1, §2

[4] = tested on: Desmocollin; assay: as above; assay type: biochemical; details: human epidermis protein extract incubated with active recombinant enzyme at 37 C
Experimental: as §1, §2

[5] = tested on: Desmoglein; assay: as above; assay type: biochemical; details: human epidermis protein extract incubated with active recombinant enzyme at 37 C
Experimental: as §1, §2

[6] = tested on: Desmoplakin; assay: as above; assay type: biochemical; details: human epidermis protein extract incubated with active recombinant enzyme at 37 C
Experimental: as §1, §2

[7] = target: T3, Plakoglobin (Homo sapiens, UniProt P14923); assay: as above; assay type: biochemical; details: human epidermis protein extract incubated with active recombinant enzyme at 37 C
T3 construct: The native form of plakoglobin has a molecular weight of between 85 kDa and 75 kDa; from tissue; host or cells: human epidermis (TENP-40 buffer extract)
T3 sequence (P14923 1-745): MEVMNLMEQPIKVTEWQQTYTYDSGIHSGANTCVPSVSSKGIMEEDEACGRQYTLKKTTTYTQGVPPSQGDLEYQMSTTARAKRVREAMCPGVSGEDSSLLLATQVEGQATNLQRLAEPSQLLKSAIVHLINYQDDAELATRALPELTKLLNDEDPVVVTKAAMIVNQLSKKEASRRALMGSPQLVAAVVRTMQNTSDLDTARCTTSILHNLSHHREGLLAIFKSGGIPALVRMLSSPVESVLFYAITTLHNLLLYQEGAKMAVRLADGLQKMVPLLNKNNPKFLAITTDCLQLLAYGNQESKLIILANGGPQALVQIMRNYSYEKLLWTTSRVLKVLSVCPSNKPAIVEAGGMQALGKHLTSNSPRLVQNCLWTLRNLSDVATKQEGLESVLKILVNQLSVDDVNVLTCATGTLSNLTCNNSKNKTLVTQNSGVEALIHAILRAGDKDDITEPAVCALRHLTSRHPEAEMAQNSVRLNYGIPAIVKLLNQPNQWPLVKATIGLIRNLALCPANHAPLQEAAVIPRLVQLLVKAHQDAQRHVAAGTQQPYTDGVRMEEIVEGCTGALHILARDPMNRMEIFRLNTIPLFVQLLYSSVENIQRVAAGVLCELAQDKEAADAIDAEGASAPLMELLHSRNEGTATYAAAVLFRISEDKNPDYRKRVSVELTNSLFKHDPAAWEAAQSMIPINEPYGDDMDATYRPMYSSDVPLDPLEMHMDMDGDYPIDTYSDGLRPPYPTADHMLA
Experimental: as §1, §2

T1 sequence (Q92817 whole entry): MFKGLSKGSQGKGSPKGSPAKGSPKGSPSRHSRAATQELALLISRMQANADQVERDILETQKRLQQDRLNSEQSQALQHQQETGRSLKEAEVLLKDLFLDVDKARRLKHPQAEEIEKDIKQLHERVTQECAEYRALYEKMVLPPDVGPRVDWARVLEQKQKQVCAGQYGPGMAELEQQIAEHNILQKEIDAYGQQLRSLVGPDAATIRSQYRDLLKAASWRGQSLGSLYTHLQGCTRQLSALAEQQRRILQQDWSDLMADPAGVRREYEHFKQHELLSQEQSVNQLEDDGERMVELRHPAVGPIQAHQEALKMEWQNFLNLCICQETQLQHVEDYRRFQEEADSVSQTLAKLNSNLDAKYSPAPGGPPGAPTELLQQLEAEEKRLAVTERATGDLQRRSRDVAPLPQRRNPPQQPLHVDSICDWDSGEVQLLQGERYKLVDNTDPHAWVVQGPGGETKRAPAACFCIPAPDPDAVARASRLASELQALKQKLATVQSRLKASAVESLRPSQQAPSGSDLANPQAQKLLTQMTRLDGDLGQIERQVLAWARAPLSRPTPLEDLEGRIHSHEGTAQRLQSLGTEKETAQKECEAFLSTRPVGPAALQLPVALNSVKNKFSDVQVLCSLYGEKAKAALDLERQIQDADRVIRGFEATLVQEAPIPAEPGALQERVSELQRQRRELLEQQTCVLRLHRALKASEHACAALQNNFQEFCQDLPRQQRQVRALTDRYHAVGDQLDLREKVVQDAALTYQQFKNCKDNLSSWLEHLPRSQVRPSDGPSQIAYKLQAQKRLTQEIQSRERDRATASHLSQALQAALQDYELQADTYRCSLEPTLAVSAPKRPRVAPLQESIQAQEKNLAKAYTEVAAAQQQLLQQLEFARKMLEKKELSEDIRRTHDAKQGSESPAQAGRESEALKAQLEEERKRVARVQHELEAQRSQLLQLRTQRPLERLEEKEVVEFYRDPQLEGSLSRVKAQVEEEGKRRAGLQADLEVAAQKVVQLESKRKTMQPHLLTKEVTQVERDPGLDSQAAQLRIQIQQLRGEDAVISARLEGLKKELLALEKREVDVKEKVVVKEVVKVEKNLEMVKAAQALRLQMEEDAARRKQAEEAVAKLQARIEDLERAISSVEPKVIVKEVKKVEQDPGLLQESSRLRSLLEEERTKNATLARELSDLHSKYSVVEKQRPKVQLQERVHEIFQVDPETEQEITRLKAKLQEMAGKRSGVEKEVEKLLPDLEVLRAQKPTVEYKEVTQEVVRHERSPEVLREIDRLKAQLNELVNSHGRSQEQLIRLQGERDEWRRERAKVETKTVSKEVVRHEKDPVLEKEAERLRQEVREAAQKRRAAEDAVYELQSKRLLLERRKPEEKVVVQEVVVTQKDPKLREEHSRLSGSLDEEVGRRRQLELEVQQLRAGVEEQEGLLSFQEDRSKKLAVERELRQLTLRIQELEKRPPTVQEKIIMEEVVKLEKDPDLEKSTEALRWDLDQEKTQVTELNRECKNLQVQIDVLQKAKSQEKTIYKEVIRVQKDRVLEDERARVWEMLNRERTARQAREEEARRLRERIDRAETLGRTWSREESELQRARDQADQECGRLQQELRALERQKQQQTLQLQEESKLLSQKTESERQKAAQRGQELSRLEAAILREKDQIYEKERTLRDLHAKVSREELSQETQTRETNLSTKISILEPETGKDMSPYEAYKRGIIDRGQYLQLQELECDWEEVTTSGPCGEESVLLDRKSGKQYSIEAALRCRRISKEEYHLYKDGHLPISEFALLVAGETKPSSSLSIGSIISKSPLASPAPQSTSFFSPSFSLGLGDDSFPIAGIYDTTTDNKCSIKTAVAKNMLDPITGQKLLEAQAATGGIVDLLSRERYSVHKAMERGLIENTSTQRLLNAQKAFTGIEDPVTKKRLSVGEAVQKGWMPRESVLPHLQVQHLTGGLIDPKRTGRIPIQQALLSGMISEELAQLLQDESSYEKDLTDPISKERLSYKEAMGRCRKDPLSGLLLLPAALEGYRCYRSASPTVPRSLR

proteolysis of Envoplakin [2]: proteolysed | proteolysis of Corneodesmosin [3]: proteolysed | proteolysis of Plakoglobin [7]: proteolysed
Substance: SCTE: recombinant Stratum Corneum Tryptic Enzyme expressed in an active form
number of corneodesmosomes in treated versus untreated stratum corneum [1]: decrease significantly | proteolysis of Desmocollin [4]: proteolysed | proteolysis of Desmoglein [5]: proteolysed | proteolysis of Desmoplakin [6]: proteolysed

— patent US20040106120A1, “Diagnosis and treatment of disease” (priority 2000, published 2004)
